The experiment deals with T1, MeCP2-TBL1 interaction (MeCP2-SmBiT / TBL1-LgBiT) (Mus musculus, UniProt Q9QXE7).
T1 construct: expressed in transfected cells; crude lysate used as a cell-free assay
T1 sequence (Q9QXE7 166-527): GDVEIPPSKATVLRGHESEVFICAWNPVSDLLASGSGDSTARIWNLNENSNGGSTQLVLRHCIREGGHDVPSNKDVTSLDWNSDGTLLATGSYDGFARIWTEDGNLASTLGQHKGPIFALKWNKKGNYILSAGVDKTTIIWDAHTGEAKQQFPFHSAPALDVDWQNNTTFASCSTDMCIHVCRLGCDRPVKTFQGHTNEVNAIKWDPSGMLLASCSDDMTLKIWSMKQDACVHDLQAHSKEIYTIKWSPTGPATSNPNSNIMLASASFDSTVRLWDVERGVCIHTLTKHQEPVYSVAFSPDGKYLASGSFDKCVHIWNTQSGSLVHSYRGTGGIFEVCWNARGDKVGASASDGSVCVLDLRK
Kind of experiment: MeCP2-TBL1 NanoLuc luciferase complementation assay (cell-free, extracts of transfected HEK293 cells).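 Note: each compound tested at 20 µM final concentration.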 Format: binding, human. The procedure, abridged: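 Cell-free split NanoLuc: lysate of HEK293 cells co-expressing the MeCP2 C-terminal half-SmBiT and TBL1 WD domain-LgBiT, mixed 1:1 with furimazine. After 30 min at room temperature, luminescence was plate-median normalized.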

Setting [1] is: primary screen of the Asinex library, sheet "Sargen output Asinex library", one well per compound, Batch Ref. 1.
[2] abbreviates: primary screen of the Asinex library, sheet "Sargen output Asinex library", one well per compound.
Setting [3] is: primary screen of Asinex library, single well per compound.

As to `CC(C)=CCC[C@]1(C)Oc2c(OCCOCCO)cccc2[C@H]2O[C@H]3CCN(C(=O)OC(C)(C)C)C[C@@H]3C[C@@H]21` [BDH_33957239], the Inhibition percent under setting [1] worked out at 4.83%. On the same count and under the same terms, in the case of `COc1ccccc1Cc1cc(C(=O)N2CCCC2c2cncc(-c3nc(C)c[nH]3)n2)ccn1` (centres unmarked) [BDH_33522145] it was 0.17%; in that of `Cc1cc(Cc2cccc(F)c2)cc(C2CN(C(=O)Cc3ccc(F)cc3)CCO2)n1` (centres unmarked) [BDF_26219393], -0.80%. On to `O=C(Cn1cccc(C(=O)NCc2ccccc2)c1=O)NC1(c2ccccc2)CCCC1` [BDB_26402348], for which the Inhibition percent under setting [2] is 2.11%. For `CC(C)CN1C(=O)C2(CCN(C(=O)Cn3cccnc3=O)CC2)CC1Cc1ccc(F)cc1` (centres unmarked) [BDH_33517008], the Inhibition percent under setting [1] is reported as -0.88%.

Regarding `COc1ccccc1Cc1cnc(C2CCCN(C(=O)c3cc(-c4ccc(F)cc4)no3)C2)o1` (centres unmarked) [BDE_33509516], the Inhibition percent under setting [1] is given as 6.24%. Take `Cc1cc(Oc2ccc(F)cc2)nc(C2CCN(C(=O)c3cncc(-c4cncnc4)c3)CC2)n1` [BDH_32369058]: the Inhibition percent under setting [2] is -2.06%. In the case of `COc1ccc(CNC(=O)c2cnc(C)nc2C2CCCCN2C(=O)c2cnccn2)cc1` (centres unmarked) [BDC_23571437], the Inhibition percent under setting [2] amounted to 0.37%. On the same count and under the same terms, then `C=CCN1CCN(C(=O)Cc2cccnc2)C(Cc2ccc(-c3cccs3)cc2)C1=O` (centres unmarked) [BDD_21855492], with 0.61%. Consider `Cc1cccc(NC(=O)CCCC(=O)N2[C@H](Cc3ccccc3)C[C@]3(C)NC(=O)CCC[C@H]23)n1` [BDG_33629701], for which, under setting [1], the Inhibition percent was -3.82%. Consider `COc1ccc(F)cc1-c1cccc(CC2(C(=O)NCCN3CCCCC3C)CCOCC2)c1` (centres unmarked) [BDD_24116196], for which the Inhibition percent under setting [2] was determined as 5.71%. Turning to `Cc1cccc(Cc2cccc(C3CCCN(C(=O)c4ccnc(-c5cnn(C)c5)c4)C3)n2)c1` (centres unmarked) [BDH_32362596], the Inhibition percent under setting [2] is on record as 2.04%. `Cc1n[nH]c(C)c1NC(=O)CN1C[C@@H](c2cc(F)cc(F)c2)[C@@]2(CCCCC(=O)N2)C1` [BDH_33616713]: the Inhibition percent under setting [3] is recorded as -0.00541. As to `CC(C)C[C@H]1CN(C(=O)c2ccc(O)cc2)CC[C@H]1Nc1cccc(Cl)c1` [BDG_34030674], the Inhibition percent under setting [2] turned out to be 7.44%. Still for that read-out and setting: then `O=C(c1ccccc1OCCN1CCOCC1)N1CCCC(Cc2ccc3ncccc3c2)C1` (centres unmarked) [BDH_32358044], with -2.19%; and `O=C1OC2(CCN(C(=O)C3(c4ccccc4)CCCC3)C2)CN1Cc1ccc(F)cc1` (centres unmarked) [BDH_32289921], with 0.62%; and `CC(=O)N1[C@@H](Cc2ccccc2)[C@@H]2C[C@@]3(C)[C@H](CCCC[C@@H]13)N2Cc1ccc(OCC(=O)O)cc1` [BDG_33507682], with 3.50%. For the molecule `COc1ccccc1Cc1ccc(C(=O)N2CCC(c3cccc(-c4cncn4C)n3)CC2)cn1` [BDH_33521315], under setting [1], the Inhibition percent turned out to be 0.21%.

`CC(=O)N[C@@H](Cc1c[nH]c2ccccc12)C(=O)N1CC[C@H]2O[C@H]3c4cc(Cl)ccc4OC(C)(C)[C@@H]3C[C@H]2C1` [BDG_33905586]: the Inhibition percent under setting [1] was -0.13%.

In the case of `COc1ccccc1Cc1cnc(C2CCCCN2C(=O)Cn2ncc3ccccc3c2=O)o1` (centres unmarked) [BDE_33513118], the Inhibition percent under setting [1] worked out at 1.49%. Still for that read-out and setting: in the case of `O=C(O)CCCC(=O)N[C@@H]1C[C@@H](Oc2cccc(Cl)c2)[C@H](O)[C@H]1N1CCc2ccccc2C1` [BDG_34135462] it was -0.65%. For `c1ccc(COc2cccc(CN3CCOCC(Cc4ccc5nccn5n4)C3)c2)nc1` (centres unmarked) [BDH_32351403], under setting [2], the Inhibition percent is reported as -0.41%. As for `O=C(O)c1ccccc1-c1ccc(CN2CCCC2c2ccncn2)cc1` (centres unmarked) [BDE_30687637], the Inhibition percent under setting [1] is -2.12%. For `COCCC(=O)N[C@]1(C)C[C@@H](c2ccc(Cl)cc2)O[C@@H](c2cc(Br)ccc2O)C1` [BDH_34036884], the Inhibition percent under setting [3] came to 5.22.

For the molecule `CC(=O)N1CCC2(C/C=C/C[C@H]3CN(C(=O)Cc4cccc(F)c4)CC[C@H]3NC(=O)CNC2=O)CC1` [BDH_33732909], the Inhibition percent under setting [2] was -2.58%.

In the case of `O=C(c1ccccc1Cn1cccn1)N1CCCC1c1cncc(Cc2cccc(F)c2)n1` (centres unmarked) [BDH_32340865], under setting [2], the Inhibition percent was determined as 0.32%. For `O=C(NCCC1CCCCN1C(=O)CCn1cnc2ccccc21)c1ccccc1` (centres unmarked) [BDH_33631954], under setting [1], the Inhibition percent was -1.65%.

In the case of `Cc1ccc2nc(COCC(=O)N3CCCC3c3ccnc(-c4cccc(Cl)c4)n3)[nH]c2c1` (centres unmarked) [BDE_33630067], the Inhibition percent under setting [2] was determined as 1.05%. The same measure, in the same setting: then `O=C(NCCc1ccccc1)[C@@H]1[C@H](O)[C@@H](c2ccc(F)cc2)CN1C(=O)CCc1ccc(Cl)cc1` [BDG_34023221], with 2.58%. `CC(=O)Nc1cccc([C@@H]2CN(CCc3ccc(F)cc3)C[C@]23CCCCC(=O)N3)c1` [BDF_30280717]: the Inhibition percent under setting [1] is -0.37%. Regarding `COc1cccc2c1OC(C)(C)[C@H]1CC[C@H](C3CCN(C(=O)CCCC(=O)O)CC3)O[C@H]21` [BDG_34129516], the Inhibition percent under setting [2] is recorded as -0.90%.

In the case of `Cn1nc(C(F)(F)F)cc1C(=O)NCC[C@@H]1C[C@@H](S(=O)(=O)c2ccccc2)CCO1` [BDF_23100510], under setting [3], the Inhibition percent is 0.85.

Take `Cn1cc(-c2cc(C(=O)N3CCCC(c4cccc(-c5cccc(C(N)=O)c5)n4)C3)ccn2)cn1` (centres unmarked) [BDH_32374050]: the Inhibition percent under setting [2] is reported as -6.35%.

As to `Cc1nc(C2(O)CCCN(Cc3ccncc3)CC2)sc1CCOc1ccccc1` (centres unmarked) [BDF_26909339], under setting [1], the Inhibition percent is recorded as -3.76%. `CN1CCC(c2c(C(=O)NCCS(=O)(=O)NC3CCCCC3)sc3ccccc23)C1` (centres unmarked) [BDD_24044260]: the Inhibition percent under setting [3] was -0.05. The same measure, in the same setting: in the case of `COCCNC(=O)CN1CCCC1c1nc(C)c2c(n1)N(Cc1ccccc1)C(=O)CC2` (centres unmarked) [BDE_24735834] it was -1.63. For `COc1ccc2c(c1)[C@H]1OCC3(CCN(Cc4cnccn4)CC3)C[C@@H]1C(C)(C)O2` [BDG_33690689], the Inhibition percent under setting [2] is given as -2.69%. On the same count and under the same terms, in the case of `CN(CCC(=O)N1[C@H](Cc2ccccc2)C[C@]2(C)NC(=O)CCC[C@H]12)Cc1cccnc1` [BDG_33630477] it was -2.32%. `Cc1nccn1Cc1ccccc1C(=O)N1C[C@@H](c2cccc(F)c2)[C@@]2(CCCCC(=O)N2)C1` [BDH_32372714]: under setting [3], the Inhibition percent is listed as -2.77. With `Cc1nonc1COc1ccccc1C(=O)N1CCCC(Cc2ccc3ccncc3c2)CC1` (centres unmarked) [BDH_32355894], the Inhibition percent under setting [1] was 5.62%. The same measure, in the same setting: in the case of `O=C(c1cccc(-c2cncnc2)n1)N1CCCCC1c1ncc(Cc2cccc(F)c2)o1` (centres unmarked) [BDE_33514471] it was -1.40%. `Cc1ccc(C2(C(=O)N3CCC(CC(=O)Nc4ccc5nccnc5c4)CC3)CCOCC2)cc1` [BDH_32368328]: the Inhibition percent under setting [1] is -1.52%. With `O=C(NCCC1CCCCN1C(=O)CCN1C(=O)CCNC1=O)c1ccccc1` (centres unmarked) [BDH_33628607], under setting [3], the Inhibition percent is given as 0.45.

For `C[C@@]12C[C@H]3[C@H](Cc4ccccc4)N[C@@H]1CCC[C@@H]2N3C(=O)c1ccnc(Cc2ccccc2F)c1` [BDG_33507770], the Inhibition percent under setting [1] is -1.87%. The same measure, in the same setting: in the case of `CCc1cc(C(=O)N2CCC3(CC2)CO[C@@H]2c4cc(OC)ccc4OC(C)(C)[C@H]2C3)no1` [BDG_33691868] it was 2.32%.

Take `CNc1cccc(C2CCCN2Cc2ccc(-c3ccccc3C(=O)O)cc2)n1` (centres unmarked) [BDE_30687673]: the Inhibition percent under setting [2] is on record as -2.37%. On the same count and under the same terms, in the case of `Cc1cccc(Oc2cncc(C3CCCN(C(=O)c4cccc(Cn5ccnc5C)c4)C3)n2)c1` (centres unmarked) [BDH_32360361] it was 0.07%. On to `CN(C)c1ccccc1C(=O)N(C)[C@H]1CC[C@@]2(CCO)C[C@H](c3ccccc3)C[C@](C)(O2)[C@@H]1O` [BDH_33903744], for which the Inhibition percent under setting [3] is recorded as 1.99.

On to `CC(C)(NC(=O)Cc1cccc(F)c1)C(=O)N1CCCC2(CC1)CN(c1ccccc1)C(=O)O2` (centres unmarked) [BDH_32367867], for which, under setting [3], the Inhibition percent amounted to 2.91. With `Oc1cccc2c1OC1(CCN(Cc3ccncc3)CC1)[C@H]1CCCO[C@H]21` [BDG_33900152], under setting [2], the Inhibition percent is listed as -3.60%. For `CN(C)c1ncc(-c2cccc(F)c2)c(C2CCCCN2C(=O)COc2ccccc2)n1` (centres unmarked) [BDE_26725534], the Inhibition percent under setting [1] was found to be 34.22%. Still for that read-out and setting: then `O=C(c1ccccc1OCCN1CCOCC1)N1CCCC(Cc2cccc3cccnc23)CC1` (centres unmarked) [BDH_32353622], with 2.11%. For `O=C(c1ccccc1CN1CCCC1)N1CCCC(c2cccc(Cc3ccccc3F)n2)C1` (centres unmarked) [BDH_32353816], the Inhibition percent under setting [2] worked out at 1.91%. Consider `COc1ccc(N2CCN(CC3(O)CCN(c4cccc(C)c4)CC3)C(C(N)=O)C2)cc1` (centres unmarked) [BDH_33612322], for which the Inhibition percent under setting [1] was -0.28%. Regarding `C[C@]12C[C@@H](Cc3ccccc3)N(C(=O)c3cccc(Cn4cccn4)c3)[C@H]1CCCC(=O)N2` [BDH_24639058], the Inhibition percent under setting [3] is -1.63. Turning to `COc1cccc(-c2cc(C(=O)N3CCC[C@@]4(C[C@@H](Oc5cccc(Cl)c5)CO4)C3)[nH]n2)c1` [BDH_33516566], the Inhibition percent under setting [2] was determined as 6.38%. As to `CCN1CCN(C(=O)Cc2ccccc2OC)C(Cc2ccc(-c3cccnc3)cc2)C1=O` (centres unmarked) [BDD_21886831], under setting [1], the Inhibition percent is listed as -2.52%. `CN(C)[C@@H]1C[C@@H](C(N)=O)N(CC(=O)Nc2ccc(Oc3ccccc3)cc2)[C@H]1c1ccccc1` [BDG_33626169]: under setting [1], the Inhibition percent stood at 3.84%. Same read-out and setting: then `O=C(NCc1ccccc1)c1cccnc1C1CCCCN1CC(=O)N1CCNC1=O` (centres unmarked) [BDE_24470675], with -2.87%.

Source of the values: article PMC9995496, “A screen for MeCP2-TBL1 interaction inhibitors using a luminescence-based assay” (Scientific Reports, 2023).
